Reference: patent EP0004835A1, “Ethanolamine compounds, processes for their preparation, pharmaceutical preparations containing them and their medicinal use” (priority 1978, dated 1979)
Values joined by “and” are separate entries in the source; they are usually repeats but may differ in a detail not shown here. Identical values can stand only once. Counter-ions that a name gives are not always drawn. Like-named read-outs stand apart in the source and are kept apart here.

Assays:
[1] = tested on: histamine induced bronchospasm; assay: Bronchospasmolytic effect in anaesthetized cat (simultaneous recording); type: in vivo; conditions: narcotized cat, i.v. (brachial vein), based on molar dose giving 30 % decrease of histamine induced bronchospasm, terbutaline = 1
Description: (§1) A. Simultaneous recording of bronchospasmolytic effect, tremorogenic effect and heart stimulating effect
(§2) The bronchospasmolytic effect and the tremorogenic effect were measured simultaneously in anaesthetized cat.
(§3) The method used is described in detail by 0 A T Olsson, Acta pharmacol et toxicol 34, 106-114 (1974).
(§4) Cats weighing 2.5-3.5 kg are anaesthetized with pento- barbital (mebumalum NFN) at first by an intraperitoneal injection (30 mg/kg) and afterwards by continuous intravenous infusion to keep the level of anaesthesia constant during the experiment.
The trachea is cannulated and the lungs inflated with room air by means of a constant volume Braun-respirator. The frequency is 15-20 per min and the tidal volume 8-10 ml per kg, or just sufficient to suppress spontaneous breathing movements and to give about 150 ml/kg/min. The change in tidal volume from administered constricting agents is measured as the amount of air overflow from the delivery of a constant volume to a fixed respiration. The pressure is determined by a water (60-70 mm) pressure threshold and respiratory overflow determined by means of a Grass-volumetric pressure transducer PT 5A. Bronchial tone is increased by inhalation of a histamine aerosol generated in a Roth-Petersen nebulizer from a solution containing 0.1-0.3 mg/ml of histamine and made up to 5 % by glycerol. The nebulizer is connected to the inlet of the respirator when bronchospasm is to be produced. When the respiratory overflow has reached an even level, .the compound to be tested for bronchorealxing activity is injected into the brachial vein.
(§5) The bronchospasmolytic effect is measured as the dose, calculated in moles per kg bodyweight of the test animal, which gives 30 % decrease of the histamine induced bronchospasm. […] The heart stimulating effect is measured as the dose, calculated in moles per kg bodyweight of the test animal, which gives 25 % increase in the heart frequency.

[2] = tested on: histamine induced bronchoconstriction; assay: Onset and duration of bronchospasmolytic activity after oral administration, histamine aerosol, unanaesthetized guinea-pigs; type: in vivo; conditions: result in words
Description: These compounds have the structural formulas [drawing 91] (Compound of Example 1) [drawing 92] (Compound of Example 4) The bronchospasmolytic effect was tested as the inhibitory effect on histamine induced bronchoconstriction in unanaesthetized guinea-pigs. The test animals were exposed to a histamine mist generated by a Roth-Petersen nebulizer from a solution of 0.3 mg/ml of histamine-chloride. Guinea-pigs, strain Dunkin-Hartley, both sexes, 160-230 g were used. Saline treated control animals start a forced and irregular breathing after less than 4 minutes exposure to the aerosol. Drug-treated animals sustaining the histamine aerosol 4 minutes without a breathing influence are regarded as protected. The animals were starved for about 15 hours with water ad libitum before the test compound was administered by a stomach tube. Each of the test substances was given in an amount of 4.10^-6 mole/kg bodyweight. Groups of 8-10 animals were tested in the aerosol at 7, 15, 30, 60 and 120 minutes after administration of the test substance. The percentage of the animals which could withstand the aerosol for 4 minutes and for 10 minutes was determined.

[3] = tested on: electrically induced contractions of the soleus muscle; assay: Tremorogenic effect in anaesthetized cat (soleus muscle, simultaneous recording); type: in vivo; conditions: narcotized cat, i.v., based on molar dose giving 30 % decrease of electrically induced soleus contractions, terbutaline = 1
Description: as §1, §2, §3, §4
The soleus muscle in the hind limb, consisting mainly a -slow contracting fibres, is prepared essentially according to Bowman & Zaimis, J Physiol 144, 92-107 (1958). The muscle is enclosed in a chamber made of a rubbercovered plastic "hair-curler". The entire leg is wrapped in metal foil covered with plastic to keep the temperature constant at 35-36°C (controlled by thermo couples in the.leg). The cat is placed on its back on a thermostatically controlled operation table and the right hind limb fixed, special care being taken not to impede the blood flow.The tendon is cut and attached to a Grass strain gauge (FT 10C). The isometric tension of the muscle is calibrated to 50 g (resting tension) and 500 g (maximal tension). A plexiglas shielded bipolar Pt-electrode is placed on the tibialis nerve, near the soleus. The incomplete tetanic contractions of the muscle are elicited by a square wave pulse stimulation of the nerve by the use of a Grass S48 stimulator. The pulse duration is 0.05 msec, with frequencies selected in the range 8-12 Hz and the strength between 5-8. volts. The stimulation occurs for 1.8 sec every 20 sec.
as §5

[4] = tested on: heart frequency; assay: Heart stimulating effect in anaesthetized cat (simultaneous recording); type: in vivo
Description: as §1, §3, §4
Arterial blood pressure is measured with a Statham transducer from a cannulated carotid artery. Heart frequency is monitored by means of a tachometer set to trigger off the R-wave of the electro-cardiogram.
as §5

[5] = tested on: histamine induced bronchoconstriction; assay: Bronchospasmolytic activity at oral and subcutaneous administration, histamine aerosol, unanaesthetized guinea-pigs; type: in vivo; conditions: for ED50: Cavia porcellus, read-out: Dose protecting 50 % of the test animals against the histamine aerosol during more than 4 minutes (ED50)
Description: .The bronchospasmolytic activity of a compound of the invention at oral administration was tested on guinea-pigs. The compound according to Example 1 having the code designation D 2343, was tested. Terbutaline was used as reference substance.
The bronchospasmolytic effect was tested as the inhibitory effect on histamine induced bronchoconstriction in unanaesthetized guinea-pigs.
The test animals were exposed to a histamine mist generated by a Roth-Petersen nebulizer from a solution of 0.3 mg/ml of histamine-chloride.
Guinea-pigs, strain Dunkin-Hartle.y, both sexes, 190-250 g were used. Saline treated control animals start a forced and irregular breathing after less than 4 minutes exposure to the aerosol. Drug-treated animals sustaining the histamine aerosol 4 minutes without a breathing influence are regarded as protected. In the study with oral administration, the animals were starved for about 15 hours with water ad libitum before D 2343 or terbutaline was administered by a stomach tube.
Each compound was administered to 30-40 animals.
In the investigation with oral administration the time from drug administration to exposure of the animal to histamine was 30 minutes.
The ED50 doses are calculated on molar basis in moles per kg bodyweight of the test animal.

[6] = target: a-receptor; assay: a-receptor blocking activity, noradrenaline-induced contraction of rabbit aortic strips; parameters: species or system Albino rabbits; conditions: for IC50: compound added 10 minutes before noradrenaline, called EC 50, 6 preparations from 3 animals, read-out: Concentration inhibiting 50 % noradrenaline-induced contraction
Excerpt: The a-receptor blocking activity of two compounds of the invention was investigated. This effect is relevant in the treatment of asthma. It has been shown, e.g. by Nousiainen et al, Pharmacology 15, 469-477 (1977), that certain compounds having a-blocking effect may potentiate the effects of S-receptor-stimulating agents such as terbutaline.
In the test, the a-receptor blocking substance thymoxamine was used as reference.
Albino rabbits of both sexes (2-3 kg) were used. About 5 cm of the aorta was dissected out as near the arch as possible, transferred to a dish with Krebs solution and cut spirally. Usually 3 preparations were received from the dissected piece of vessel. Each strip was mounted in an organ bath in Krebs solution of 37°C and aerated with carbogen. The load on the preparation was 2 g and the tension changes recorded isometrically on Grass transducer FR03 and polygraph P5.
Noradrenaline, which is a strong a-receptor stimulating agent, exerts a contracting effect on the aortic strips when added to the bath. The a-receptor blocking effect of the test compound is measured by adding the test compound to the organ bath before adding nor-adrenaline.
Noradrenaline solution with a concentration producing 70-80 % of maximal contraction (0.03-0.06 µg/ml) was used. The test compound was added to the organ bath 10 minutes before the addition of noradrenaline.
The results are measured as the concentration of the test compound which inhibits the noradrenaline-induced contraction by 50 % (EC 50).
The EC 50 values are based on tests on 6 preparations obtained from 3 animals.

[7] = target: rat uterus (Rattus norvegicus, UniProt P10608); assay: Inhibitory activity on oxytocin and carbachol induced contractions of rat uterus in vitro; parameters: species or system Sprague-Dawley rats; conditions: result in words
Description: 'The uterus relaxing effect of the compounds of the invention was tested. Terbutaline was used as reference substance.
Female Sprague-Dawley rats, 150-200 g, were used. An oestrogen steroid (Estradurin, Leo), 0.25 mg/100 g, was administered s.c. 4-6 days before the experiments to bring the animals in oesterus.
The uterus horn were cut open longitudinally, mounted in organ baths in Locke solution at 33°C and gassed with carbogen. The contraction of the preparation was producted by oxytocin (Partocon, Ferring) or carbachol and given to the bath 3 min after administration of the test substance in a dose producing 70-80 % of the maximum contraction or 0.005-0.02 IE/ml of oxytocin and 0.2-0.6 µg/ml of carbacho- line chloride. The inhibitory effect produced by the test substance was eliminated by propranolol (1 µg/ml or 0.4x10^-5 M given to the bath 15 minutes before the drugs).
The tension changes were recorded isometrically (transducer FP03 and Grass polygraph P5).
The results are given as the concentration of the test compound which reduces the contraction induced by oxytocin and carbachol, respectively, by 50 % (EC 50).
Oxytocinseries: 10 preparations from 6 animals Carbacholseries: 9 preparations from 5 animals

[8] = Acute toxicity in mice; conditions: mouse, in vivo
Description: The acute toxicity of the compound D 2343 of the invention was investigated.
Male mice (NMRI) 20-25 g were used. The test compound was administered intravenously (by tail vein), subcutaneously. intraperitoneally and orally (by stomach tube to starved animals) in 6 dose levels in log- sequence with 10 or more animals tested at each dose level to determine the LD50'
After toxic doses the death followed within the first hour after i.v., s.c. and i.p. and during the first three hours after p.o. administration. No further mortality was noted during the following 5 days the animals were observed.

[9] = 0.5 h, Oral administration (stomach tube, starved), 30 minutes before histamine
[10] = sc, 0.25 h, Subcutaneous administration, 15 minutes before histamine challenge

Sequence of rat uterus (P10608 whole entry): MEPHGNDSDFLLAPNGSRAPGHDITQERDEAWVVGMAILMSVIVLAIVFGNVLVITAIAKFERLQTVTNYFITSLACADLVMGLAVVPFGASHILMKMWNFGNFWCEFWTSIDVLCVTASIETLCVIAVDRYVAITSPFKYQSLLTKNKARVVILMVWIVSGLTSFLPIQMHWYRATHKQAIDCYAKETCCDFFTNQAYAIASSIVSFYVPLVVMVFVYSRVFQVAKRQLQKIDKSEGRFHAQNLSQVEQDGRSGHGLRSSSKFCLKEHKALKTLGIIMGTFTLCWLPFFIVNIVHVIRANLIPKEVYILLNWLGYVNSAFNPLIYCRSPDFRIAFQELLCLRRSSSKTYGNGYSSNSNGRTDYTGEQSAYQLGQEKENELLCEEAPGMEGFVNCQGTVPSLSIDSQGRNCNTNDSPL

COc1ccccc1CCC(C)(C)NCC(O)c1ccc(OC(=O)C(C)(C)C)cc1 (centres unmarked) [D 2367, 1-[4-Pivaloyloxy-phenyl]-2-[1,1-dimethyl-3-(2-methoxyphenyl)propylaminolethanol sulfate]
Bronchospasmolytic effect in relation to the bronchospasmolytic effect of terbutaline [1]: 0.28±0.07 | duration of bronchospasmolytic activity [2]: considerably prolonged compared to the duration of the compound of example 1 | Tremorogenic effect in relation to the tremorogenic effect of terbutaline [3]: 0.23 ±0.07 | Heart stimulating effect in relation to the heart stimulating effect of terbutaline ([4]; cat, in vivo, iv): 0.16±0.05

CC(C)(C)NCC(O)c1cc(O)cc(O)c1 (centres unmarked) [Terbutaline, terbutaline, reference compound]
ED50 [5, 9]: 5.28 ± 0.86 µmol/kg | ED50 [5, 10]: 0.93 ± 0.14 µmol/kg | Bronchospasmolytic effect in relation to the bronchospasmolytic effect of terbutaline [1]: 1 | Tremorogenic effect in relation to the tremorogenic effect of terbutaline [3]: 1 | Heart stimulating effect in relation to the heart stimulating effect of terbutaline ([4]; cat, in vivo, iv): 1

COc1ccccc1CC(C)(C)NCC(O)c1ccc(O)cc1 (centres unmarked) [[drawing]]
IC50 ([6]; rabbit aortic strips): 500 ± 200 nM

COc1ccccc1CCC(C)(C)NCC(O)c1ccc(O)cc1.Cl (centres unmarked) [D 2343, 1-(4-hydroxyphenyl)--2-[1,1-dimethyl-3-(2-methoxyphenyl)propylamino]-ethanol hydrochloride]
potency as uterus relaxing agent compared with terbutaline [7]: more potent as uterus relaxing agent than terbutaline | ED50 [5, 9]: 2.51 ± 0.39 µmol/kg | ED50 [5, 10]: 0.34 ± 0.06 µmol/kg | times more active than terbutaline ([5]; oral administration): 2.1 times | times more active than terbutaline ([5]; subcutaneous administration): 2.7 times | IC50 ([6]; rabbit aortic strips): 600 ± 200 nM | a-receptor blocking activity compared with thymoxamine ([6]; rabbit aortic strips, result in words): higher than the a-blocking effect of thymoxamine | a-blocking effect in relation to β-stimulating effect ([6]; result in words, no data shown): obtained in the same dose range as its β-stimulating effect | Bronchospasmolytic effect in relation to the bronchospasmolytic effect of terbutaline ([1]; hydrochloride): 2.9 ±0.6 | LD50 ([8]; ip, male mice (NMRI)): 45 mg/kg | LD50 ([8]; ip, male mice (NMRI), M = 378.5): 120 µmol/kg | LD50 ([8]; iv, male mice (NMRI)): 13 mg/kg | LD50 ([8]; iv, male mice (NMRI), M = 378.5): 35 µmol/kg | LD50 ([8]; po, starved male mice (NMRI)): 170 mg/kg | LD50 ([8]; po, starved male mice (NMRI), M = 378.5): 450 µmol/kg | LD50 ([8]; sc, male mice (NMRI)): 50 mg/kg | LD50 ([8]; sc, male mice (NMRI), M = 378.5): 130 µmol/kg | Tremorogenic effect in relation to the tremorogenic effect of terbutaline ([3]; hydrochloride): 0.5 and 0.5 ±0.1

COc1ccccc1CC(C)(C)NCC(O)c1ccc(O)cc1 (centres unmarked) [D 2331, 1-(4-Hydroxyphenyl)-2-[1,1-dimethyl--2-(2-methoxyphenyl)ethylaminol]ethanol sulfate]
Bronchospasmolytic effect in relation to the bronchospasmolytic effect of terbutaline [1]: 0.12±0.03 | Tremorogenic effect in relation to the tremorogenic effect of terbutaline [3]: 0.011±0.004 | Heart stimulating effect in relation to the heart stimulating effect of terbutaline ([4]; narcotized cat, i.v., based on molar dose giving 25 % increase in heart frequency, terbutaline = 1): 0.02

COc1ccccc1CCC(C)(C)NCC(O)c1ccc(OC(=O)c2ccc(C)cc2)cc1 (centres unmarked) [D 2375, 1-[4-(4-Methylbenzoyloxy)--phenyl]-2-[1,1-dimethyl-3-(2-methoxyphenyl)propylaminolethanol sulfate]
Bronchospasmolytic effect in relation to the bronchospasmolytic effect of terbutaline [1]: 0.25±0.05 | Tremorogenic effect in relation to the tremorogenic effect of terbutaline [3]: 0.18 ±0.03 | Heart stimulating effect in relation to the heart stimulating effect of terbutaline ([4]; cat, in vivo, iv): 0.26±0.04

CC(=O)Oc1cc(C(C)C)c(OCCN(C)C)cc1C [Thymoxamine, thymoxamine, reference compound]
IC50 ([6]; rabbit aortic strips): 1500 ± 400 nM

CCOc1ccccc1CCC(C)(C)NCC(O)c1ccc(O)cc1 (centres unmarked) [D 2388, 1-(4-hydroxyphenyl)-2-[1,1--dimethyl-3-(2-ethoxyphenyl)propylamino]-ethanol hydrochloride]
Bronchospasmolytic effect in relation to the bronchospasmolytic effect of terbutaline [1]: 1.4±0.2 | Tremorogenic effect in relation to the tremorogenic effect of terbutaline [3]: 0.8±0.2 | Heart stimulating effect in relation to the heart stimulating effect of terbutaline ([4]; cat, in vivo, iv): 1
